Assay: High throughput solubility screen in Permaflo methylated soybean oil
Assay type: physicochemical
Protocol: The solubility of several agricultural active ingredients in Permaflo methylated soybean oil was determined using a high throughput solubility screen.
Liquid handler was calibrated for each liquid and vials were tared. Active ingredients were melted or dissolved and then transferred into tared vials. Solvent was removed or active was allowed to crystallize before weighing. Permaflo methylated soybean oil was added in desired quantities; vials were weighed, and capped. Mixtures were agitated (220 rpm) for 48 hours at 0° C. […] Samples were held at 0° C. for 24 hours before imaging. Samples were transferred to shaker plate on bench and were agitated for 48 hours, before seeding, holding for 24 hours and imaging. Samples were then transferred to 40° C. shaker plate, agitated for 48 hours, seeded, held and then imaged again. All samples were imaged using normal light.

## Nc1c(Cl)c(F)nc(OCC(=O)O)c1Cl [Fluroxypyr]
0° C.
  solubility in Permaflo methylated soybean oil: 25%
24° C.
  solubility in Permaflo methylated soybean oil: 35%
40° C.
  solubility in Permaflo methylated soybean oil: 55%

## CCOP(=S)(OCC)Oc1nc(Cl)c(Cl)cc1Cl [Chlorpyrifos]
0° C.
  solubility in Permaflo methylated soybean oil: 35%
24° C.
  solubility in Permaflo methylated soybean oil: 55%
40° C.
  solubility in Permaflo methylated soybean oil: >60%

Source: patent US20110275599A1, “USE OF COLD-STABILIZED METHYLATED VEGETABLE OILS AS AN AGRICULTURAL CHEMICAL COFORMULANT” (priority 2010, published 2011)
